In ChEMBL document CHEMBL5390201, “The Natural Alkaloid (-)-N-Hydroxyapiosporamide Suppresses Colorectal Tumor Progression as an NF-κB Pathway Inhibitor by Targeting the TAK1-TRAF6 Complex” (J Nat Prod, 2023):
pIC50: −log10 of the molar value. The source made the active and inactive calls. No cut-off for these calls is given here.

How the values were obtained:
[1] = Toxicity in athymic nude BALB/c mouse xenografted with human HCT-116 cells assessed as pathological changes in kidney at 5 to 15 mg/kg, ip administered every other day and measured after 14 days by hematoxylin and eosin staining-based microscopic analysis; assay type: organism-based; settings: in vivo, 336 h, dose 5-15 mg/kg, time 14 day
HT-29 [2] = experiment: Induction of autophagy in human HT-29 cells assessed as increase in LC3 protein expression at 1 to 10 uM incubated for 24 hrs by Western blot analysis; assay type: functional, cell-based; settings: dose 1-10 µM
HT-29 [3] = experiment: Induction of apoptosis in human HT-29 cells assessed as late apoptotic cells at 10 uM incubated for 24 hrs by Annexin V-FITC/PI staining based flow cytometric analysis (reference value: 1.56 %); assay type: functional
[4] = biological target: T1, Nuclear factor NF-kappa-B complex (Homo sapiens) (UniProt Q00653+P19838+Q04206); experiment: Inhibition of NFkappaB activation in HEK293T cells transfected with HA-tagged TAB2 and kappaB luciferase/pTK-renilla reporters at 2 uM incubated for 6 hrs by Dual Luciferase Reporter Assay; assay type: cell-based; settings: HEK-293T
T1 sequence (P19838 whole entry, looked up): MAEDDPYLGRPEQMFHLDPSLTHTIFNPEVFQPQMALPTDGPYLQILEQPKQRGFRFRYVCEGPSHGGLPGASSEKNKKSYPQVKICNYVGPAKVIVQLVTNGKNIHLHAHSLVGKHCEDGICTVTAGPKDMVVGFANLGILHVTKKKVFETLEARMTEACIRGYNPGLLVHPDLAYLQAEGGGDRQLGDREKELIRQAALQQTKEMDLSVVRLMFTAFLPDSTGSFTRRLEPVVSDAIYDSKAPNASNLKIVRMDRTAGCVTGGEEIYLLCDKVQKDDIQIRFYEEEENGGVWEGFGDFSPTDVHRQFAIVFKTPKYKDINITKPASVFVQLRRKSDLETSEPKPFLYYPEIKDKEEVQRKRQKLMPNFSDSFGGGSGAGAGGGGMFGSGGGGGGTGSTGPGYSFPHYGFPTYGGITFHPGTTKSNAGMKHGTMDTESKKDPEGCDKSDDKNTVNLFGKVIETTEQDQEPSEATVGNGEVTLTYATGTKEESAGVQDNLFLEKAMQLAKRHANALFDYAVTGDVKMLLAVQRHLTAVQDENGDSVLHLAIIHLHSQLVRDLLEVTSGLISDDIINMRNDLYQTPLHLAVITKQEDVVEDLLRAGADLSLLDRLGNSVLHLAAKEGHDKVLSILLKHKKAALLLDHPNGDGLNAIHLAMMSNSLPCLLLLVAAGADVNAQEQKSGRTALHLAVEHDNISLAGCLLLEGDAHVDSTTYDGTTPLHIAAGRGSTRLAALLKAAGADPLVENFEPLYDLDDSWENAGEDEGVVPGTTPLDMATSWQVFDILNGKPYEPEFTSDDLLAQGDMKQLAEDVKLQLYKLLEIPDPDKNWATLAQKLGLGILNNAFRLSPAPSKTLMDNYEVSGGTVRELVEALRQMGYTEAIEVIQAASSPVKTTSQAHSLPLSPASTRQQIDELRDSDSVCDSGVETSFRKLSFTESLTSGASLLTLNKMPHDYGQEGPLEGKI
T1 sequence (Q00653 whole entry, looked up): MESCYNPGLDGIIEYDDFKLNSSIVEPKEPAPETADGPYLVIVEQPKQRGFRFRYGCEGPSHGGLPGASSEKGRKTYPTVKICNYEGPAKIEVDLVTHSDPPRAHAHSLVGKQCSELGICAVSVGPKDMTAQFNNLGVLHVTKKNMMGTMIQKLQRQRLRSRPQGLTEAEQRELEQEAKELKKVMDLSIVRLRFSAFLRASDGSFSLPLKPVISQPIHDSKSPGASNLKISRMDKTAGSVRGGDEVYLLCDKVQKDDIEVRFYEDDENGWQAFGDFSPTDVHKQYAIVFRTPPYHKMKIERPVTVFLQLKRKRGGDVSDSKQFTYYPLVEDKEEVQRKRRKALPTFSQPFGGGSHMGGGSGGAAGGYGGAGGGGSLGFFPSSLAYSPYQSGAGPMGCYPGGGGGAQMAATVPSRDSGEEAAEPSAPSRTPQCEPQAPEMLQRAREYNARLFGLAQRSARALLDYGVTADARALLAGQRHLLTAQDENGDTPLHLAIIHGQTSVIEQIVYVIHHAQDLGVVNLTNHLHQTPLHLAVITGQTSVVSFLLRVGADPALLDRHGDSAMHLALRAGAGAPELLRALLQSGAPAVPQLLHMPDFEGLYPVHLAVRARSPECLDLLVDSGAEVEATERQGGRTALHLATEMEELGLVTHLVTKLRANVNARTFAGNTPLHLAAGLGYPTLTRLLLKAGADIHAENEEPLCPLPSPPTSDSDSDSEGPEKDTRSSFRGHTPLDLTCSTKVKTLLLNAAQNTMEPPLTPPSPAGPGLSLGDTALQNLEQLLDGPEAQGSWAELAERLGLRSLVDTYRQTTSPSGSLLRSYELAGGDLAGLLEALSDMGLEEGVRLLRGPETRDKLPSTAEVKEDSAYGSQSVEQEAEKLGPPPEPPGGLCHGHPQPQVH
T1 sequence (Q04206 whole entry, looked up): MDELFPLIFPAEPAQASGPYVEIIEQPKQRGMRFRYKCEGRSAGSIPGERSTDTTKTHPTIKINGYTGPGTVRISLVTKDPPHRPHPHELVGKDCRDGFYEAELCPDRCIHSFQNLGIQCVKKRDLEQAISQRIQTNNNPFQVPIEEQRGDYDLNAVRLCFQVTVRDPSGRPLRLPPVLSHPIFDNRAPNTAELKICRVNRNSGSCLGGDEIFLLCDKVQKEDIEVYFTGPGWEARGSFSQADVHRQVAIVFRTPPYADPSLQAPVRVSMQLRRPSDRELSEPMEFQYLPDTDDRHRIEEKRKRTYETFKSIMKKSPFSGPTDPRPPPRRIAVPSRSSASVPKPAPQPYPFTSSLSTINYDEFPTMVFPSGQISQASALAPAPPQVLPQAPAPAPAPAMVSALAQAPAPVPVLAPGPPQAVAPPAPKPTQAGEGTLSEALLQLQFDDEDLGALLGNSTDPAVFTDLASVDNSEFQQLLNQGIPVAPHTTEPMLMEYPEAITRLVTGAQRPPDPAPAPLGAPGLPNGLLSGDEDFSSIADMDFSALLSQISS

Mus musculus [5] = experiment: (§1) Anti-inflammatory activity in AOM/DSS-induced BALB/c mouse model inflammatory bowel disease assessed as reduction in transformation into adenocarcinoma at 10 mg/kg, ip pretreated with AOM for 7 days further replaced with DSS for 7 days and repeated for 2 times followed by every 2 days compound treatment for […] starting from day 50 by H and E staining based analysis; assay type: functional, organism-based; settings: time 21.0 day
RAW264.7 = experiment: Inhibition of LPS-induced NFkappaB activation in mouse RAW264.7 cells assessed as inhibition of NO production preincubated for 24 hrs followed by LPS stimulation for 24 hrs; assay type: cell-based; settings: dose 0.125-1 µM, time 48.0 hrs
HT-29 [6] = experiment: Antitumor activity against human HT-29 cells xenografted in athymic nude BALB/c mouse assessed as reduction in tumor weight at 5 to 15 mg/kg, ip administered every other day and measured every other day for 16 days; assay type: functional, organism-based; settings: dose 5-15 mg/kg, time 16.0 day
HCT-116 [7] = experiment: Cytotoxicity against human HCT-116 cells assessed as decrease in cell viability incubated for 48 hrs by SRB assay; assay type: functional, cell-based; settings: HCT-116, 48 h
HCT-116 [8] = experiment: Induction of apoptosis in human HCT-116 cells assessed as necrotic cells at 5 uM incubated for 24 hrs by Annexin V-FITC/PI staining based flow cytometric analysis (reference value: 1.1 %); assay type: functional
[9] = Toxicity in athymic nude BALB/c mouse assessed as change in serum AST level at 5 to 15 mg/kg, ip administered every other day and measured after 14 days; assay type: organism-based; settings: in vivo, 336 h, dose 5-15 mg/kg, time 14 day
HCT-116 [10] = experiment: Antitumor activity against human HCT-116 cells xenografted in athymic nude BALB/c mouse assessed as reduction in tumor volume at 5 to 15 mg/kg, ip administered every other day and measured every other day for 16 days; assay type: functional, organism-based; settings: dose 5-15 mg/kg, time 16.0 day
HCT-116 [11] = experiment: Induction of cell cycle arrest in human HCT-116 cells assessed as decrease in P-cdc2 protein expression upto 10 uM incubated for 24 hrs by Western blot analysis; assay type: functional, cell-based
Mus musculus [12] = experiment: Anti-inflammatory activity in AOM/DSS-induced BALB/c mouse model inflammatory bowel disease assessed as reduction in DAI score at 5 to 10 mg/kg, ip pretreated with AOM for 7 days further replaced with DSS for 7 days and repeated for 2 times followed by every 2 days compound treatment for […] starting from day 50 and measured once a week; assay type: functional, organism-based; settings: dose 5-10 mg/kg, time 21.0 day
HT-29 [13] = experiment: Induction of cell cycle arrest in human HT-29 cells assessed as accumulation of cells at S phase at 1 uM by RNase/PI staining based flow cytometry analysis (reference value: 39.34%); assay type: functional
HT-29 [14] = experiment: Induction of cell cycle arrest in human HT-29 cells assessed as decrease in CDK2 protein expression upto 10 uM incubated for 24 hrs by Western blot analysis; assay type: functional, cell-based
[15] = biological target: T1, Nuclear factor NF-kappa-B complex (Homo sapiens); experiment: Inhibition of TNF-alpha induced NFkappaB activation in human HCT-116 cells assessed as inhibition of p65 nuclear translocation at 10 uM pretreated for 6 hrs followed by TNFalpha stimulation for 15 mins by immunohistochemical analysis; assay type: cell-based; settings: time 6.25 hrs
HCT-116 [16] = experiment: Induction of apoptosis in human HCT-116 cells assessed as viable cells at 5 uM preincubated with Z-VAD-FMK for 1 hr followed by compound addition and measured after 24 hrs by Annexin V-FITC/PI staining based flow cytometric analysis (reference value: 85.5 %); assay type: functional; settings: read-out: Activity
[17] = Cmax in Sprague-Dawley rat at 10 mg/kg, ip measured for 240 mins by HPLC-MS/MS analysis; assay type: ADME, organism-based; parameters: time 240 min, dose 10 mg/kg, route ip; settings: in vivo
Mus musculus [18] = experiment: as §1, with “hyperplasia” for “transformation into adenocarcinoma”; assay type: functional, organism-based; settings: time 21.0 day
HT-29 [19] = experiment: Induction of apoptosis in human HT-29 cells assessed as late apoptotic cells at 5 uM incubated for 24 hrs by Annexin V-FITC/PI staining based flow cytometric analysis (reference value: 1.56 %); assay type: functional
HCT-116 [20] = experiment: Induction of cell cycle arrest in human HCT-116 cells assessed as accumulation of cells at S phase at 10 uM by RNase/PI staining based flow cytometry analysis (reference value: 43.77 %); assay type: functional
HT-29 [21] = experiment: Induction of autophagy in human HT-29 cells assessed as increase in LC3I to LC3II conversion at 1 to 10 uM incubated for 24 hrs by Western blotting analysis; assay type: functional, cell-based; settings: dose 1-10 µM
HT-29 [22] = experiment: Induction of apoptosis in human HT-29 cells assessed as viable cells at 5 uM preincubated with Z-VAD-FMK for 1 hr followed by compound addition and measured after 24 hrs by Annexin V-FITC/PI staining based flow cytometric analysis (reference value: 88.5 %); assay type: functional; settings: read-out: Activity
HCT-116 [23] = experiment: Induction of cell cycle arrest in human HCT-116 cells assessed as accumulation of cells at G0/G1 phase at 5 uM by RNase/PI staining based flow cytometry analysis (reference value: 33.08 %); assay type: functional
HT-29 [24] = experiment: Induction of apoptosis in human HT-29 cells assessed as necrotic cells at 5 uM preincubated with Z-VAD-FMK for 1 hr followed by compound addition and measured after 24 hrs by Annexin V-FITC/PI staining based flow cytometric analysis (reference value: 0.4 %); assay type: functional
HCT-116 [25] = experiment: Induction of apoptosis in human HCT-116 cells assessed as early apoptotic cells at 5 uM incubated for 24 hrs by Annexin V-FITC/PI staining based flow cytometric analysis (reference value: 8.06 %); assay type: functional
HT-29 [26] = experiment: Induction of autophagy in human HT-29 cells transfected with GFP-LC3 assessed as increase in LC3 dot puncta at 1 to 10 uM incubated for 24 hrs by fluorescence microscopy; assay type: functional, cell-based; settings: dose 1-10 µM
[27] = Toxicity in athymic nude BALB/c mouse xenografted with human HT-29 cells assessed as pathological changes in spleen at 5 to 15 mg/kg, ip administered every other day and measured after 14 days by hematoxylin and eosin staining-based microscopic analysis; assay type: organism-based; settings: in vivo, 336 h, dose 5-15 mg/kg, time 14 day
HCT-116 [28] = experiment: Induction of apoptosis in human HCT-116 cells assessed as viable cells at 0.25 uM incubated for 24 hrs by Annexin V-FITC/PI staining based flow cytometric analysis (reference value: 88.8%); assay type: functional; settings: read-out: Activity
HEK-293T = experiment: Inhibition of Flag-tagged TAK1/HA-tagged TRAF6 (unknown origin) protein-protein interaction transfected in HEK293T cells at 2 uM incubated for 6 hrs by co-immunoprecipitation method; assay type: cell-based; settings: Homo sapiens
Cell membrane = experiment: Disruption of mitochondrial membrane potential in human HCT-116 cells at upto 10 uM measured after 24 hrs by JC-1 staining based fluorescence microscopy; assay type: subcellular

For `C[C@@H]1CC[C@H]2[C@H](C(=O)c3c(O)c([C@@]4(O)CC[C@@H](O)[C@H]5O[C@H]54)cn(O)c3=O)[C@H](C)C=C[C@@H]2C1`, the Activity [1] was “Non-Toxic”, the Activity (HT-29 [2]) was “Active” and the Activity (HT-29 [3]) was 16.8%. The inhibition [4] was “Active”, the Activity (Mus musculus [5]) was “Active” and the inhibition (RAW264.7) was “Dose-Dependent Effect”. For the same compound, the Activity (HT-29 [6]) was “Active”, the pIC50 (HCT-116 [7]) was 6.03 and the Activity (HCT-116 [8]) was 2.9%. For the same compound, the Activity [9] was “Non-Toxic”, the Activity (HCT-116 [10]) was “Active” and the Activity (HCT-116 [11]) was “Active”. The Activity (Mus musculus [12]) was “Active”, the Activity (HT-29 [13]) was 23.75% and the Activity (HT-29 [14]) was “Active”. The inhibition [15] was “Active”, the viability at 5 µM (HCT-116 [16]) was 29.5% and the Cmax [17] was 4590 ng/mL. The Activity (Mus musculus [18]) was “Active”, the Activity (HT-29 [19]) was 4.04% and the Activity (HCT-116 [20]) was 39.08%. For the same compound, the Activity (HT-29 [21]) was “Active”, the viability at 5 µM (HT-29 [22]) was 65.5% and the Activity (HCT-116 [23]) was 44.31%. The Activity (HT-29 [24]) was 0.15%, the Activity (HCT-116 [25]) was 5.47% and the Activity (HT-29 [26]) was “Active”. For the same compound, the Activity [27] was “Non-Toxic”, the viability at 0.25 µM (HCT-116 [28]) was 59.9% and the inhibition (HEK-293T) was “Active”. For the same compound, the Activity (Cell membrane) was “Active”.
